Results on 3 compounds are retold here after patent US9040715B2 (priority 2008, dated 2015).

Format in all cases: cell-based
The test system of data set [1] is HCV replicon cell line APC103 (genomic H77, genotype la). The data set is described as follows: Anti-HCV activity, 3-day HCV replicon assay, blot hybridization of intracellular HCV RNA. Conditions: for EC50: read-out: EC50 (μM ± SD); for EC90: 10-fold depression of intracellular HCV RNA. Here is the method: (§1) The antiviral activity of Compounds I-8 and I-9 was assessed in a 3-day assay using the stably-expressing HCV replicon cell lines, AVA5 (sub-genomic CONI, genotype 1b) and APC103 (genomic H77, genotype la) maintained as sub -confluent cultures on 96-well plates. Antiviral activity was determined by blot hybridization analysis of intracellular HCV RNA (normalized to the level of cellular B-actin RNA in each culture sample). A 3-fold suppression of HCV RNA and less than 2-fold suppression of cellular B-actin RNA was used as the cutoff. Cytotoxicity was assessed by neutral red dye uptake after 3 days of treatment. Dose response inhibition of HCV was also determined (FIG. 6). The nucleoside analogue 2′C-methyl cytidine (2′CmeC) was used as an assay activity control. EC50, EC90 and CC50 values (+/− standard deviations [S.D.]) were calculated by linear regression analysis. EC50 and EC90 are drug concentrations at which a 2-fold, or a 10-fold depression of intracellular HBV DNA or HCV RNA (relative to the average levels in untreated cultures), respectively, was observed. CC50 is the drug concentration at which a 2-fold lower level of neutral red dye uptake (relative to the average levels in untreated cultures) was observed.
Background: A replicon is a self-replicating genome or part of one, used to study replication in cells.

Data set [2] has as its system HCV replicon cell line AVA5 (sub-genomic CONI, genotype 1b). The description is as above. Conditions: for EC50: 2-fold depression of intracellular HCV RNA. Here is the method:
as §1

For data set [3], the system named is APC103 cells. The data set is described as follows: Cytotoxicity by neutral red dye uptake after 3 days of treatment. On the procedure: as §1
Data set [4] relates to AVA5 cells. Described as above. On the procedure: as §1
Assay in data set [5]: as above
Conditions: human. Here is the method: as §1

Data set [6] has as its system HCV replication. The data set is described as follows: Effect of combination treatments on HCV replication (CalcuSyn analysis). Conditions: for EC50 / EC90: Hepatitis C virus; for EC50: read-out: Compound I-9 EC50; for EC90: read-out: Compound I-9 EC90. Also on record: key to Type of Interaction: S, synergistic. From the text: Compound I-9 was utilized in combination treatments with interferon (with and without RBV), and several representative STAT—C agents including 2′CmeC (nucleoside analogue), HCV-796 (non-nucleoside polymerase inhibitor), and VX-950 (protease inhibitor) (Table 13). For these studies, the compounds were mixed at equipotent (not necessarily equimolar) concentrations based on the monotherapy EC90 values. For example, 2′CmeC and Compound I-9 were mixed at equal molar concentrations, while 10-fold more Compound I-9 was used relative to VX-950 in that combination. The mixtures were then serially diluted for dose response analysis keeping the molar ratios constant. Corresponding monotherapies were also included. # Ribavirin (RBV) was held at a constant concentration of 30 uM for all serial dilutions of this combination. The overall type of interaction as determined by analysis with CalcuSyn (Biosoft, Inc.; Cambridge, UK) for each combination is indicated next to the corresponding EC50 and EC90 values in Table 13.
Analysis of combination therapies was performed using Calcusyn™ software (Biosoft, Inc.; Cambridge, UK). Two types of evaluations were performed (see FIG. 7). The top panels of FIG. 5 present CI-Fa (Combination Index—Fraction (of virus) affected) plots). For these plots, a combination index [CI] greater than 1.0 indicates antagonism and a CI less than 1.0 indicates synergism. Evaluations of synergy, additivity (summation), or antagonism at different levels of virus inhibition (e.g. […] (Fa=0.5) to 99% (Fa=0.99)) were performed and are provided by the plotted lines and points. Dotted lines denoting 1.96 standard deviations for significance evaluations can be added but are not included in this example for clarity of presentation. The bottom panels present conservative isobolograms. […] Three lines radiating out from the axes denote the expected (e.g., additive) EDC50, EDC75, and EDC90 values for drug combinations as calculated from the monotherapies. ED50, ED75, and ED90 values for the combinations that plot to the left (e.g., less than) of the corresponding lines indicate synergy, and values plotting to the right (e.g., greater than) of the corresponding lines indicate antagonism.

[7] abbreviates: Hepatitis C virus, Ava5, read-out: EC90 (μM ± SD).
Where [8] appears, read: combination with 2′CmeC, molar ratio 1:1.
Setting [9] is: combination with HCV-796, molar ratio 1:100.
[10] abbreviates: combination with IFN + 30 μM RBV (RBV held constant), molar ratio 1:1.
Setting [11] is: combination with IFN, molar ratio 1:1.
Where [12] appears, read: combination with VX-950, molar ratio 1:10.

Structures are written as SMILES. Where two headings read alike, the source gives them in different places.

As to `C[C@@]1(O)[C@H](O)[C@@H](CO)O[C@H]1n1ccc(N)nc1=O` [2′CmeC, 2′C-methyl cytidine, reference compound], the results for the “SI (CC50/EC50)” value in data set [1] (APC103) and in data set [2] (AVA5) were more than 136 and more than 150, respectively. For the same compound, the EC50 turned out to be 5.8 ± 0.4 µM in data set [1] (APC103, 2-fold depression of intracellular HCV RNA) and 2 ± 0.1 µM in data set [2] (AVA5). For the same compound, the EC90 in data set [1] (APC103) was determined as 6.4 ± 0.6 µM; in data set [2] (AVA5, 10-fold depression of intracellular HCV RNA, read-out: EC90 (μM ± SD)) it was 2.2 ± 0.2 µM. The cytotoxic concentration (CC50) in data set [3] and in data set [4] was more than 300 µM in each case.

Turning to `O=C(Cn1sc2ccccc2c1=O)Nc1cccc(Oc2ccccc2)c1` [Compound I-8], the entries for the “SI (CC50/EC50)” value in data set [1] (APC103) and in data set [2] (AVA5) were more than 18 and more than 17, respectively. Besides, the EC50 in data set [1] (Hepatitis C virus) is 19 ± 2.3 µM; in data set [2] (Hepatitis C virus, AVA5), 5.8 ± 3.7 µM. The concentration for an effect of 90% (EC90) is 23 ± 1.8 µM in data set [1] (Hepatitis C virus, APC103) and 5.6 ± 0.7 µM in data set [2] (setting [7]). For the same compound, the half-maximal cytotoxic concentration (CC50) at 3 days in data set [5] (APC103) and in data set [5] (AVA5) was more than 100 µM in each case.

With `CC(C(=O)Nc1cccc(Oc2ccccc2)c1)n1sc2ccccc2c1=O` (stereo not drawn) [Compound I-9], the results for the “SI (CC50/EC50)” value in data set [1] (APC103) and in data set [2] (AVA5) were more than 35 and more than 42, respectively. Besides, the EC50 was 8.5 ± 0.6 µM in data set [1] (Hepatitis C virus); 2.4 ± 0.2 µM in data set [2] (Hepatitis C virus, AVA5); 2600 ± 200 nM in data set [6] (None (monotherapy)); 700 ± 100 nM in data set [6] (setting [8]); 100 ± 10 nM in data set [6] (setting [9]); 200 ± 30 nM in data set [6] (setting [10]). The concentration for a half-maximal effect (EC50) in data set [6] (setting [11]) was 300 ± 30 nM; in data set [6] (setting [12]) it was 300 ± 20 nM. Besides, the concentration for an effect of 90% (EC90) is 9 ± 1 µM in data set [1] (Hepatitis C virus, APC103); 2.8 ± 0.3 µM in data set [2] (setting [7]); 9100 ± 500 nM in data set [6] (None (monotherapy)); 1800 ± 200 nM in data set [6] (setting [8]); 400 ± 30 nM in data set [6] (setting [9]); 700 ± 100 nM in data set [6] (setting [10]). The values for the concentration for an effect of 90% (EC90) in data set [6] (setting [11]) and in data set [6] (setting [12]) were 1000 ± 100 nM and 700 ± 100 nM, respectively. In addition, the CC50 at 3 days in data set [5] (APC103) and in data set [5] (AVA5) was more than 100 µM each time. For the same compound, the “Type of Interaction” value in data set [6] (setting [8]), in data set [6] (setting [9]), in data set [6] (setting [10]), in data set [6] (setting [11]) and in data set [6] (setting [12]) was “S” each time. Besides, the “Interaction in combination treatments” value in data set [6] (with interferon, ribavirin, and the STAT-C agents) was “interacted favorably”.

One may read the EC50 as the concentration at which the effect is half-maximal. For orientation: EC90 means the concentration needed for an effect of 90%. Usually CC50 stands for the concentration that lowers cell viability or growth by half.
